Experimental findings from patent US10435399B2, “HDAC6 inhibitory heterocyclic compound” (TAKEDA PHARMACEUTICAL COMPANY LIMITED, priority 2017, dated 2019) are described below.

The first assay addresses T1, HDAC6 enzyme (Homo sapiens, UniProt Q9UBN7).
T1 construct: transducing full length HDAC6 gene into Sf-9 insect cells; GST; purchased SignalChem; host or cells: Sf-9 insect cells
T1 sequence (Q9UBN7 1-1215): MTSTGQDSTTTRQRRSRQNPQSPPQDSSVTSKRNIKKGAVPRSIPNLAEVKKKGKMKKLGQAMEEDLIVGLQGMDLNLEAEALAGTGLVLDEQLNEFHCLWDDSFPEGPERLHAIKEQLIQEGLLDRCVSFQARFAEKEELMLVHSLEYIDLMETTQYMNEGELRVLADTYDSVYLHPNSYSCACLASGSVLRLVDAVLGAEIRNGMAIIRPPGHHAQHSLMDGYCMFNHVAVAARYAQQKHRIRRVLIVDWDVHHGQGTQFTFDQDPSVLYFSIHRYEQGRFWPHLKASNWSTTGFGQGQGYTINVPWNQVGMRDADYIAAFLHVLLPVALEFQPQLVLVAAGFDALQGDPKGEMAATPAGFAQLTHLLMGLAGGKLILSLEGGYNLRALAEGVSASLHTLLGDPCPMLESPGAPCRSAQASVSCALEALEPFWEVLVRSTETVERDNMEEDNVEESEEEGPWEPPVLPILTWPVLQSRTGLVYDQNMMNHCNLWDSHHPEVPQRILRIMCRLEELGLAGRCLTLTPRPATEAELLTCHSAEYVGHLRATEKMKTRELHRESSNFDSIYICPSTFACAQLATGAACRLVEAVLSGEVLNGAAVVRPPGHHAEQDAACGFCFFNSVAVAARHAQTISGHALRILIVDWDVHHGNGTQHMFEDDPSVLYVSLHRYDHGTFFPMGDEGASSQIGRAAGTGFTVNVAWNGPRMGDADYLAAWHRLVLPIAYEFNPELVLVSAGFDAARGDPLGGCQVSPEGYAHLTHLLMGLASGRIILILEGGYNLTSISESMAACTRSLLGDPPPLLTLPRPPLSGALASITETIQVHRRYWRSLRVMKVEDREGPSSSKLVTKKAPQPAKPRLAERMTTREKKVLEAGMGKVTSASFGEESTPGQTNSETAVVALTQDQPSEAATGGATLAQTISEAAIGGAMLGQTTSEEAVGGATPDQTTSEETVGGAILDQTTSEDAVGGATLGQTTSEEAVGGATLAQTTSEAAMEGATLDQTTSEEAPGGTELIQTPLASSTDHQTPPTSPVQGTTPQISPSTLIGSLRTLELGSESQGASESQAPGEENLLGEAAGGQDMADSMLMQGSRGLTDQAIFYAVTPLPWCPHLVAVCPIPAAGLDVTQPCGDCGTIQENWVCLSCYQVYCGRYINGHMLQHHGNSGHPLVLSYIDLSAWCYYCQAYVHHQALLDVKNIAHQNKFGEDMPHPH
Put plainly: HDAC6 enzyme inhibitory activity (HDAC-Glo I/II Assay kit). The format is biochemical. To be noted: 10 μM; wells without enzyme = 100% inhibition. In a few lines: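 Test compound is preincubated 60 min at RT with full-length insect-cell HDAC6 in Tris-HCl pH 7.5 with 135 mM NaCl and 1 mM MgCl2. A 20 min room-temperature HDAC-Glo reaction follows, with luminescent read-out.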
Take `O=C1c2cc(-c3nnc(C(F)F)o3)ccc2CN1N1CCC(F)(F)CC1c1ccc(F)cn1` (stereo not drawn) [Example 610, 2-(4,4-Difluoro-2-(5-fluoropyridin-2-yl)piperidin-1-yl)-6-(5-(difluoromethyl)-1,3,4-oxadiazol-2-yl)isoindolin-1-one (Optical Isomer)]: the “HDAC6 inhibitory rate (%) (10 μM)” value was 99%.

As for `O=C1c2cc(-c3nnc(C(F)F)o3)ccc2CN1N1CCC(F)(F)CC1c1ccc(F)cn1` (stereo not drawn) [Example 612, 2-(4,4-Difluoro-2-(5-fluoropyridin-2-yl)piperidin-1-yl)-6-(5-(difluoromethyl)-1,3,4-oxadiazol-2-yl)isoindolin-1-one (Optical Isomer)], the “HDAC6 inhibitory rate (%) (10 μM)” value came out at 99%.

Take `Cc1ccc(C2CC(F)(F)CCN2N2Cc3ccc(-c4nnc(C(F)F)o4)cc3C2=O)nc1` (stereo not drawn) [Example 614, 6-(5-(difluoromethyl)-1,3,4-oxadiazol-2-yl)-2-(4,4-difluoro-2-(5-methylpyridin-2-yl)piperidin-1-yl)isoindolin-1-one (optical isomer)]: the “HDAC6 inhibitory rate (%) (10 μM)” value was found to be 99%. As for `Cc1ccc(C2CC(F)(F)CCN2N2Cc3ccc(-c4nnc(C(F)F)o4)cc3C2=O)nc1` (stereo not drawn) [Example 615, 6-(5-(difluoromethyl)-1,3,4-oxadiazol-2-yl)-2-(4,4-difluoro-2-(5-methylpyridin-2-yl)piperidin-1-yl)isoindolin-1-one (optical isomer)], the “HDAC6 inhibitory rate (%) (10 μM)” value was determined as 99%.

Still in this assay, the particulars now being: 10 μM; wells without enzyme = 100% inhibition; read-out: HDAC6 inhibitory rate (%) (10 μM).
For the compound `O=C1c2cc(-c3nnc(C(F)F)o3)ccc2CN1N1CCCCC1c1cccc(F)c1` (stereo not shown) [Example 603, 6-(5-(difluoromethyl)-1,3,4-oxadiazol-2-yl)-2-(2-(3-fluorophenyl)piperidin-1-yl)isoindolin-1-one], the inhibition at 10 µM came out at 100%.

For `O=C(OCc1ccccc1)C1CC(F)(F)CCN1N1Cc2ccc(-c3nnc(C(F)F)o3)cc2C1=O` (stereo not shown) [Example 604, benzyl 1-(6-(5-(difluoromethyl)-1,3,4-oxadiazol-2-yl)-1-oxo-1,3-dihydro-2H-isoindol-2-yl)-4,4-difluoropiperidine-2-carboxylate], the inhibition at 10 µM is 98%. Same read-out and setting: under `CC(C)(C(=O)N[C@H]1[C@H](N2Cc3ncc(-c4nnc(C(F)F)o4)cc3C2=O)CCCC1(F)F)C(F)(F)F` [Example 605, N-((1S,6R)-6-(3-(5-(difluoromethyl)-1,3,4-oxadiazol-2-yl)-5-oxo-5,7-dihydro-6H-pyrrolo[3,4-b]pyridin-6-yl)-2,2-difluorocyclohexyl)-3,3,3-trifluoro-2,2-dimethylpropanamide] stands 99%; under `O=C1c2cc(-c3nnc(C(F)F)o3)cnc2CN1C1CCCC(F)(F)[C@H]1NC(=O)C1(C(F)(F)F)CC1` (stereo partly shown) [Example 606], 99%. Still for that read-out and setting: under `CC(C)(CF)OC(=O)N[C@H]1[C@H](N2Cc3ncc(-c4nnc(C(F)F)o4)cc3C2=O)CCCC1(F)F` [Example 607, 1-fluoro-2-methylpropan-2-yl ((1S,6R)-6-(3-(5-(difluoromethyl)-1,3,4-oxadiazol-2-yl)-5-oxo-5,7-dihydro-6H-pyrrolo[3,4-b]pyridin-6-yl)2,2-difluorocyclohexyl)carbamate] stands 99%; under `CC(C)(OC(=O)N[C@H]1[C@H](N2Cc3ncc(-c4nnc(C(F)F)o4)cc3C2=O)CCCC1(F)F)C(F)F` [Example 608, 1,1-difluoro-2-methylpropan-2-yl ((1S,6R)-6-(3-(5-(difluoromethyl)-1,3,4-oxadiazol-2-yl)-5-oxo-5,7-dihydro-6H-pyrrolo[3,4-b]pyridin-6-yl)-2,2-difluorocyclohexyl)carbamate], 99%; under `Cn1cc(C2CCCCN2N2Cc3ccc(-c4nnc(C(F)F)o4)cc3C2=O)cn1` (stereo not shown) [Example 609, 6-(5-(difluoromethyl)-1,3,4-oxadiazol-2-yl)-2-(2-(1-methyl-1H-pyrazol-4-yl)piperidin-1-yl)isoindolin-1-one], 99%.

Regarding `CC(=O)N1CCC(C2CCCCN2N2Cc3ccc(-c4nnc(C(F)F)o4)cc3C2=O)CC1` (stereo not shown) [Example 611, 2-(1′-acetyl-2,4′-bipiperidin-1-yl)-6-(5-(difluoromethyl)-1,3,4-oxadiazol-2-yl)isoindolin-1-one], the inhibition at 10 µM was 101%. Still for that read-out and setting: to `O=C(N[C@H]1[C@H](N2Cc3ncc(-c4nnc(C(F)F)o4)cc3C2=O)CCCC1(F)F)C(C(F)(F)F)C(F)(F)F` [Example 613, N-((1S,6R)-6-(3-(5-(difluoromethyl)-1,3,4-oxadiazol-2-yl)-5-oxo-5,7-dihydro-6H-pyrrolo[3,4-b]pyridin-6-yl)-2,2-difluorocyclohexyl)-3,3,3-trifluoro-2-(trifluoromethyl)propanamide] belongs 99%; to `O=C1c2cc(-c3nnc(C(F)F)o3)ccc2CN1c1cccn2ccnc12` [Example 616, 6-(5-(difluoromethyl)-1,3,4-oxadiazol-2-yl)-2-(imidazo[1,2-a]pyridin-8-yl)isoindolin-1-one], 89%; to `O=C1c2cc(-c3nnc(C(F)F)o3)ccc2CN1N1CCOCC1c1ccc(F)cc1` (stereo not shown) [Example 617, 6-(5-(difluoromethyl)-1,3,4-oxadiazol-2-yl)-2-(3-(4-fluorophenyl)morpholin-4-yl)isoindolin-1-one], 100%. The same measure, in the same setting: to `O=C(N[C@@H]1[C@H](N2Cc3ccc(-c4nnc(C(F)F)o4)cc3C2=O)CCCC1(F)F)OCc1ccccc1` [Example 619, benzyl ((1R,6R)-6-(6-(5-(difluoromethyl)-1,3,4-oxadiazol-2-yl)-1-oxo-1,3-dihydro-2H-isoindol-2-yl)-2,2-difluorocyclohexyl)carbamate] belongs 100%; to `N[C@@H]1[C@H](N2Cc3ccc(-c4nnc(C(F)F)o4)cc3C2=O)CCCC1(F)F` [Example 621, 2-((1R,2R)-2-amino-3,3-difluorocyclohexyl)-6-(5-(difluoromethyl)-1,3,4-oxadiazol-2-yl)isoindolin-1-one], 88%; to `O=C(NCC(F)(F)C(F)(F)F)C1CC(F)(F)CCN1N1Cc2ccc(-c3nnc(C(F)F)o3)cc2C1=O` (stereo not shown) [Example 622, 1-(6-(5-(difluoromethyl)-1,3,4-oxadiazol-2-yl)-1-oxo-1,3-dihydro-2H-isoindol-2-yl)-4,4-difluoro-N-(2,2,3,3,3-pentafluoropropyl)piperidine-2-carboxamide], 100%. Consider `O=C(NCC(F)F)C1CC(F)(F)CCN1N1Cc2ccc(-c3nnc(C(F)F)o3)cc2C1=O` (stereo not shown) [Example 623, N-(2,2-difluoroethyl)-1-(6-(5-(difluoromethyl)-1,3,4-oxadiazol-2-yl)-1-oxo-1,3-dihydro-2H-isoindol-2-yl)-4,4-difluoropiperidine-2-carboxamide], for which the inhibition at 10 µM was 100%. In the case of `O=C1c2cc(-c3nnc(C(F)F)o3)ccc2CN1[C@@H]1CCCC(F)(F)[C@@H]1NC(=O)C(F)(F)C(F)(F)F` [Example 625, N-((1R,6R)-6-(6-(5-(difluoromethyl)-1,3,4-oxadiazol-2-yl)-1-oxo-1,3-dihydro-2H-isoindol-2-yl)-2,2-difluorocyclohexyl)-2,2,3,3,3-pentafluoropropanamide], the inhibition at 10 µM came out at 101%.

On to `CC(F)(F)C(=O)N[C@@H]1[C@H](N2Cc3ccc(-c4nnc(C(F)F)o4)cc3C2=O)CCCC1(F)F` [Example 626, N-((1R,6R)-6-(6-(5-(difluoromethyl)-1,3,4-oxadiazol-2-yl)-1-oxo-1,3-dihydro-2H-isoindol-2-yl)-2,2-difluorocyclohexyl)-2,2-difluoropropanamide], for which the inhibition at 10 µM was determined as 100%.

As to `COC(=O)N1CCC[C@@H](N2Cc3ccc(-c4nnc(C(F)F)o4)cc3C2=O)[C@H]1c1ccc(F)cc1` [Example 627, methyl (2R,3R)-3-(6-(5-(difluoromethyl)-1,3,4-oxadiazol-2-yl)-1-oxo-1,3-dihydro-2H-isoindol-2-yl)-2-(4-fluorophenyl)piperidine-1-carboxylate], the inhibition at 10 µM was found to be 100%.
